From ChEMBL document CHEMBL1128494, “Synthesis and sigma binding properties of 1'- and 3'-halo- and 1',3'-dihalo-N-normetazocine analogues” (J Med Chem, 1995) come the findings set out here.

The target in this assay is Sigma non-opioid intracellular receptor 1 (Rattus norvegicus) (UniProt Q9R0C9). The experiment in a line: Ratio of the binding affinity against Sigma receptor type 2 to that of Sigma receptor type 1.
Sigma non-opioid intracellular receptor 1 (Rattus norvegicus), sequence (Q9R0C9 whole entry): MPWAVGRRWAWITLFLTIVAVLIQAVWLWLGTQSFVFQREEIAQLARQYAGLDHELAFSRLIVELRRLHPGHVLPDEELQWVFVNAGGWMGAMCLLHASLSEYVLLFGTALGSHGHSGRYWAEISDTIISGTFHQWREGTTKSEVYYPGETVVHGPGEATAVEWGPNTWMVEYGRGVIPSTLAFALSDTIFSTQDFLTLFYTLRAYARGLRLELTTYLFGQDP
On to `CC(C)=CCN1CCC2(C)c3cc(O)c(Br)cc3CC1C2C` (single isomer, unassigned; (-)), for which the Ratio stood at 1.9.
The result for `CC(C)=CCN1CCC2(C)c3c(cc(Br)c(O)c3Br)CC1C2C` (single isomer, unassigned; (+)) reads 1.8; that for `CC1C2Cc3cc(Br)c(O)c(Br)c3C1(C)CCN2Cc1ccccc1` (single isomer, unassigned; (+)), 28; that for `CC(C)=CCN1CCC2(C)c3cc(O)c(I)cc3CC1C2C` (stereo in doubt; (-)-5b), 2.7.
The result for `CC1C2Cc3ccc(O)c(Cl)c3C1(C)CCN2Cc1ccccc1` (single isomer, unassigned; (+)) reads 440; that for `CC1C2Cc3ccc(O)cc3C1(C)CCN2Cc1ccccc1` (stereo unspecified), 2600; that for `CC1C2Cc3cc(Br)c(O)cc3C1(C)CCN2Cc1ccccc1` (stereo unspecified), 18.
The result for `CC(C)=CCN1CCC2(C)c3cc(O)c(Br)cc3CC1C2C` (single isomer, unassigned; (+)) reads 3.2.
Take `CC1C2Cc3ccc(O)c(Br)c3C1(C)CCN2Cc1ccccc1` (single isomer, unassigned; (+)): the Ratio amounted to 200.
With `CC(C)=CCN1CCC2(C)c3cc(O)c(I)cc3CC1C2C` (stereo in doubt; (+)-5b), the Ratio stood at 0.24.
The result for `CC1C2Cc3cc(Cl)c(O)c(Cl)c3C1(C)CCN2Cc1ccccc1` (stereo unspecified) reads 30.
